Activity calls are given as the source filed them. The calls are words filed in the database; no cut-off is given here. Where a SMILES comes first, the peptide text is derived from it. The star is where a group is joined. Cbz = O=C(OCc1ccccc1)*; OtBu = CC(C)(C)O*
What was measured:
PC-12 [1] = test: Increase in reduced glutathione level in rat PC12 cells after 24 hrs; type: functional, cell-based
PC-12 [2] = test: Cytotoxicity against rat PC12 cells after 24 hrs by MTT assay; type: functional, cell-based; conditions: PC-12, 24 h
PC-12 [3] = test: Inhibition of 6-hydroxydopamine induced cytotoxicity in rat PC12 cells pretreated for 24 hrs assessed as elevation of intracellular glutathione level; type: functional, cell-based
PC-12 [4] = test: Inhibition of hydrogen peroxide induced cytotoxicity in rat PC12 cells pretreated for 24 hrs assessed as elevation of intracellular glutathione level; type: functional, cell-based
PC-12 [5] = test: Reversal of increase in glutathione level in rat PC12 cells at 1 uM in presence of 3 uM SB-203580 after 24 hrs relative to control; type: functional
PC-12 [6] = test: Inhibition of 300 uM 6-hydroxydopamine induced ROS production in rat PC12 cells pretreated at 1 uM for 24 hrs by MTT assay; type: functional, cell-based
PC-12 [7] = test: Reversal of increase in glutathione level in rat PC12 cells at 1 uM in presence of 3 uM BIM after 24 hrs relative to control; type: functional
PC-12 [8] = test: Increase in reduced glutathione level in rat PC12 cells at 1 uM after 24 hrs; type: functional
PC-12 [9] = test: Inhibition of proteosome activity in rat PC12 cells at 0.1 uM after 6 hrs relative to control; type: cell-based; set-up: scale not given: the % may be the effect or the level left
PC-12 [10] = test: Inhibition of proteosome activity in rat PC12 cells at 1 uM after 24 hrs relative to control; type: cell-based; set-up: scale not given: the % may be the effect or the level left
PC-12 [11] = test: Inhibition of proteosome activity in rat PC12 cells at 0.3 uM after 24 hrs relative to control; type: cell-based; set-up: scale not given: the % may be the effect or the level left
PC-12 [12] = test: Increase in GLCLC subunit mRNA expression in rat PC12 cells at 1 uM after 12 hrs; type: functional, cell-based
PC-12 [13] = test: Reversal of increase in GLCLC subunit mRNA expression in rat PC12 cells at 1 uM after 12 hrs in presence of p38 MAPK inhibitor SB-203580; type: functional, cell-based
PC-12 [14] = test: Inhibition of 200 uM hydrogen peroxide induced ROS production in rat PC12 cells pretreated for 24 hrs by MTT assay; type: functional, cell-based
PC-12 [15] = test: Translocation of Nrf2 protein to nucleus in rat PC12 cells at 1 uM around 6 or 9 hrs; type: functional, cell-based
PC-12 [16] = test: Inhibition of 150 uM 6-hydroxydopamine induced ROS production in rat PC12 cells pretreated for 24 hrs by MTT assay; type: functional, cell-based
PC-12 [17] = test: Inhibition of 6-hydroxydopamine induced cytotoxicity in differentiated rat PC12 cells pretreated for 24 hrs by MTT assay; type: functional, cell-based
PC-12 [18] = test: Reversal of cytoprotection activity in rat PC12 cells pretreated at 1 uM for 24 hrs in presence of p38 MAPK inhibitor SB-203580; type: functional, cell-based
PC-12 [19] = test: Increase in glutathione level in differentiated rat PC12 cells after 24 hrs; type: functional, cell-based
PC-12 [20] = test: Reversal of increase in glutathione level in rat PC12 cells at 1 uM in presence of 10 uM SB-203580 after 24 hrs relative to control; type: functional
PC-12 [21] = test: Reversal of increase in glutathione level in rat PC12 cells at 1 uM in presence of 100 nM cycloheximide after 24 hrs relative to control; type: functional
PC-12 [22] = test: Inhibition of 6-hydroxydopamine-induced cytotoxicity in rat PC12 cells pretreated for 24 hrs by MTT assay; type: functional, cell-based
PC-12 [23] = test: Reversal of increase in glutathione level in rat PC12 cells at 1 uM in presence of 10 nM cycloheximide after 24 hrs relative to control; type: functional
PC-12 [24] = test: Reversal of increase in glutathione level in rat PC12 cells at 1 uM in presence of 30 uM SB-203580 after 24 hrs relative to control; type: functional
PC-12 [25] = test: Increase in oxidized glutathione level in rat PC12 cells at 1 uM after 24 hrs; type: functional, cell-based
PC-12 [26] = test: Reversal of increase in glutathione level in rat PC12 cells at 1 uM in presence of 10 uM wortmannin after 24 hrs relative to control; type: functional
PC-12 [27] = test: Inhibition of proteosome activity in rat PC12 cells at 0.1 uM after 24 hrs relative to control; type: cell-based; set-up: scale not given: the % may be the effect or the level left
PC-12 [28] = test: Reversal of increase in glutathione level in rat PC12 cells at 1 uM in presence of 30 uM PD-98059 after 24 hrs relative to control; type: functional
PC-12 [29] = test: Inhibition of proteosome activity in rat PC12 cells at 0.3 uM after 6 hrs relative to control; type: cell-based; set-up: scale not given: the % may be the effect or the level left
PC-12 [30] = test: Inhibition of 6-hydroxydopamine induced cytotoxicity in differentiated rat PC12 cells pretreated for 24 hrs by lactate dehydrogenase release assay; type: functional, cell-based
PC-12 [31] = test: Increase in oxidized glutathione level in rat PC12 cells at 1 uM after 12 hrs; type: functional, cell-based
PC-12 [32] = test: Inhibition of hydrogen peroxide induced cytotoxicity in rat PC12 cells pretreated for 24 hrs by MTT assay; type: functional, cell-based
PC-12 [33] = test: Reversal of increase in glutathione level in rat PC12 cells at 1 uM in presence of 30 nM cycloheximide after 24 hrs relative to control; type: functional
PC-12 [34] = test: Inhibition of 300 uM hydrogen peroxide induced ROS production in rat PC12 cells pretreated at 1 uM for 24 hrs by MTT assay; type: functional, cell-based
PC-12 [35] = test: Reversal of increase in glutathione level in rat PC12 cells at 1 uM in presence of 10 uM SP600125 after 24 hrs relative to control; type: functional
PC-12 [36] = test: Inhibition of proteosome activity in rat PC12 cells at 1 uM after 6 hrs relative to control; type: cell-based; set-up: scale not given: the % may be the effect or the level left

## CC[C@H](C)[C@H](NC(=O)OCc1ccccc1)C(=O)N[C@@H](CCC(=O)OC(C)(C)C)C(=O)N[C@@H](C)C(=O)N[C@H](C=O)CC(C)C (Cbz-IE(OtBu)AL-aldehyde)
PC-12 [1]
  Activity: Active

## CC(C)C[C@@H](C=O)NC(=O)[C@H](CC(C)C)NC(=O)[C@H](CC(C)C)NC(=O)OCc1ccccc1 (Cbz-Leu-Leu-Leu-aldehyde)
PC-12 [1]
  Activity: Active

## NCCc1cc(O)c(O)cc1O [OXIDOPAMINE]
PC-12 [2]
  EC50: 106 µM

## CC(=O)N[C@@H](CS)C(=O)O
PC-12 [3]
  Activity: Active
PC-12 [4]
  Activity: Active

## CC(=O)N[C@@H](CSC(=O)[C@]1([C@@H](O)C(C)C)NC(=O)[C@H](C)[C@@H]1O)C(=O)O [LACTACYSTIN]
PC-12 [5]
  Activity: 220 nmol/mg
PC-12 [6]
  Activity: Active
PC-12 [7]
  Activity: 354 nmol/mg
PC-12 [8]
  Activity: 320.5 nmol/mg
PC-12 [9]
  Activity: 98%
PC-12 [10]
  Activity: 77.2%
PC-12 [1]
  Activity: Dose-dependent effect
PC-12 [11]
  Activity: 84.9%
PC-12 [12]
  Activity: Active
PC-12 [13]
  Activity: Active
PC-12 [14]
  Activity: Active
PC-12 [15]
  Activity: Active
PC-12 [16]
  Activity: Active
PC-12 [17]
  Activity: Dose-dependent effect
PC-12 [18]
  Activity: Active
PC-12 [19]
  Activity: Dose-dependent effect
PC-12 [20]
  Activity: 190.5 nmol/mg
PC-12 [21]
  Activity: 98.3 nmol/mg
PC-12 [22]
  Activity: Dose-dependent effect
PC-12 [23]
  Activity: 216.8 nmol/mg
PC-12 [24]
  Activity: 133.5 nmol/mg
PC-12 [25]
  Activity: Active
PC-12 [26]
  Activity: 248.7 nmol/mg
PC-12 [27]
  Activity: 94.3%
PC-12 [28]
  Activity: 234 nmol/mg
PC-12 [29]
  Activity: 70.3%
PC-12 [30]
  Activity: Active
PC-12 [31]
  Activity: inactive
PC-12 [32]
  Activity: Dose-dependent effect
PC-12 [33]
  Activity: 150 nmol/mg
PC-12 [34]
  Activity: Active
PC-12 [35]
  Activity: 341.4 nmol/mg
PC-12 [36]
  Activity: 49.7%

— ChEMBL document CHEMBL1156425, “Proteasome inhibition induces glutathione synthesis and protects cells from oxidative stress: relevance to Parkinson disease” (J Biol Chem, 2007)
